The record followed here is ChEMBL document CHEMBL3045941, “-Methyl as a bioisostere for the oxygen link between the aromatic rings of aryloxyphenoxypropionate herbicides” (Bioorg Med Chem Lett, 1997).

Active and inactive are the calls of the source. The rule behind the calls is not given here.

Data set [1] deals with Echinochloa crus-galli. As to the kind of experiment: Post-emergent herbicidal activity against Echinochloa crus-galli (barnyard grass) at 500 g/ha measured after 13 days under green house conditions. The data set is classed as functional.
Data set [2] concerns Sorghum halepense. The experiment in a line: Post-emergent herbicidal activity against Sorghum halepense (Johnson grass) at 500 g/ha measured after 13 days under green house conditions. The data set is classed as functional.
Data set [3] relates to Triticum aestivum. As to the kind of experiment: Phytotoxicity against Triticum aestivum (wheat) plant at two to four-leaf growth stage at 500 g/ha measured after 13 days under green house conditions. The data set is classed as organism-based. Particulars: in vivo, 312 h.
The subject of data set [4] is Triticum aestivum. As to the kind of experiment: Phytotoxicity against Triticum aestivum (wheat) at two to four-leaf growth stage at <2 g/ha measured after 13 days under green house conditions. Format: organism-based. To be noted: in vivo, 312 h.
Data set [5] relates to Avena fatua. The experiment in a line: Post-emergent herbicidal activity against Avena fatua at 500 g/ha measured after 13 days under green house conditions. The data set is classed as functional.
Data set [6] deals with Oryza sativa. As to the kind of experiment: Phytotoxicity against Oryza sativa (rice) plant at two to four-leaf growth stage at <2 g/ha measured after 13 days under green house conditions. The data set is classed as organism-based. To be noted: in vivo, 312 h.
Data set [7] relates to Zea mays. The experiment in a line: Phytotoxicity against Zea mays (maize) plant at two to four-leaf growth stage at <2 g/ha measured after 13 days under green house conditions. Format: organism-based. To be noted: in vivo, 312 h.
Data set [8] concerns Avena fatua. As to the kind of experiment: Post-emergent herbicidal activity against Avena fatua at <2 g/ha measured after 13 days under green house conditions. The data set is classed as functional, organism-based.
Data set [9] deals with Oryza sativa. As to the kind of experiment: Phytotoxicity against Oryza sativa (rice) plant at two to four-leaf growth stage at 500 g/ha measured after 13 days under green house conditions. To be noted: in vivo, 312 h. Format: organism-based.
Data set [10] has as its system Zea mays. The experiment in a line: Phytotoxicity against Zea mays (maize) plant at two to four-leaf growth stage at 500 g/ha measured after 13 days under green house conditions. To be noted: in vivo, 312 h. Format: organism-based.
The test system of data set [11] is Sorghum halepense. The experiment in a line: Post-emergent herbicidal activity against Sorghum halepense (Johnson grass) at <2 g/ha measured after 13 days under green house conditions. Format: functional, organism-based.
The test system of data set [12] is Setaria viridis. As to the kind of experiment: Post-emergent herbicidal activity against Setaria viridis (green foxtail) at 500 g/ha measured after 13 days under green house conditions. Format: functional.
For data set [13], the system named is Echinochloa crus-galli. The experiment in a line: Post-emergent herbicidal activity against Echinochloa crus-galli (barnyard grass) at <2 g/ha measured after 13 days under green house conditions. Format: functional, organism-based.
The test system of data set [14] is Setaria viridis. The experiment in a line: Post-emergent herbicidal activity against Setaria viridis (green foxtail) at <2 g/ha measured after 13 days under green house conditions. The data set is classed as functional, organism-based.
Data set [15] deals with Triticum aestivum. As to the kind of experiment: Phytotoxicity against Triticum aestivum (wheat) at two to four-leaf growth stage at 50 g/ha measured after 13 days under green house conditions. Format: organism-based. To be noted: in vivo, 312 h.
For data set [16], the system named is Sorghum halepense. As to the kind of experiment: Post-emergent herbicidal activity against Sorghum halepense (Johnson grass) at 50 g/ha measured after 13 days under green house conditions. The data set is classed as functional.
For data set [17], the system named is Echinochloa crus-galli. As to the kind of experiment: Post-emergent herbicidal activity against Echinochloa crus-galli (barnyard grass) at 50 g/ha measured after 13 days under green house conditions. Format: functional.
For data set [18], the system named is Avena fatua. As to the kind of experiment: Post-emergent herbicidal activity against Avena fatua at 50 g/ha measured after 13 days under green house conditions. The data set is classed as functional.
Data set [19] deals with Oryza sativa. The experiment in a line: Phytotoxicity against Oryza sativa (rice) plant at two to four-leaf growth stage at 50 g/ha measured after 13 days under green house conditions. Format: organism-based. Particulars: in vivo, 312 h.
For data set [20], the system named is Zea mays. The experiment in a line: Phytotoxicity against Zea mays (maize) plant at two to four-leaf growth stage at 50 g/ha measured after 13 days under green house conditions. Format: organism-based. Particulars: in vivo, 312 h.
Data set [21] has as its system Setaria viridis. The experiment in a line: Post-emergent herbicidal activity against Setaria viridis (green foxtail) at 50 g/ha measured after 13 days under green house conditions. The data set is classed as functional.

As to `COC(=O)C(C)Oc1ccc(N(C)c2ccc(C(F)(F)F)cn2)cc1` (racemic), the Activity in the data set on Echinochloa crus-galli [1] was 50%; in the data set with Sorghum halepense [2], 0%; in the data set on Triticum aestivum [3] it was 30%; with Triticum aestivum [4], “Non-toxic”; in the data set on Avena fatua [5], 0%; in the data set with Oryza sativa [6], “Non-toxic”. Besides, the Activity entry with Zea mays [7] is listed as “Non-toxic”; with Oryza sativa [9], 0%; in the data set with Zea mays [10] it was 30%; with Setaria viridis [12], 0%. Further, the result with Avena fatua [8], in the data set on Sorghum halepense [11], in the data set with Echinochloa crus-galli [13] and with Setaria viridis [14] was inactive.
Take `COC(=O)C(C)Oc1ccc(Oc2ccc3cc(Cl)ccc3n2)cc1` (racemic): the Activity is given as 100% in the data set on Echinochloa crus-galli [1]; 100% in the data set on Sorghum halepense [2]; 85% with Triticum aestivum [3]; “Non-toxic” with Triticum aestivum [4]; 85% in the data set on Avena fatua [5]; “Non-toxic” in the data set with Oryza sativa [6]. Further, the Activity entry in the data set on Zea mays [7] is on record as “Non-toxic”; in the data set with Oryza sativa [9] it was 85%; with Zea mays [10] it was 100%; in the data set on Setaria viridis [12], 100%. Moreover, the outcome in the data set with Avena fatua [8], in the data set on Sorghum halepense [11], in the data set with Echinochloa crus-galli [13] and with Setaria viridis [14] was inactive.
Take `CCOC(=O)C(C)Oc1ccc(Oc2nc3ccc(Cl)cc3o2)cc1` (racemic) [FENOXAPROP-ETHYL]: the Activity in the data set on Triticum aestivum [15] is on record as 0%; in the data set with Sorghum halepense [16], 100%; in the data set with Echinochloa crus-galli [17], 100%; in the data set on Triticum aestivum [4] it was “Non-toxic”; with Oryza sativa [6] it was “Non-toxic”; in the data set on Zea mays [7], “Non-toxic”. Moreover, the Activity in the data set on Avena fatua [18] was 85%; with Oryza sativa [19], 70%; in the data set with Zea mays [20], 85%; in the data set with Setaria viridis [21] it was 100%. Further, the result in the data set on Avena fatua [8], in the data set with Sorghum halepense [11], with Echinochloa crus-galli [13] and in the data set on Setaria viridis [14] was inactive.
As for `COC(=O)C(C)Oc1ccc(Oc2ccc(Cl)cc2Cl)cc1` (racemic) [DICLOFOP-METHYL], the Activity is 100% in the data set on Echinochloa crus-galli [1]; 70% with Sorghum halepense [2]; 0% in the data set on Triticum aestivum [3]; “Non-toxic” in the data set with Triticum aestivum [4]; 70% in the data set with Avena fatua [5]; “Non-toxic” in the data set on Oryza sativa [6]. Besides, the Activity entry was “Non-toxic” in the data set on Zea mays [7], 0% in the data set on Oryza sativa [9], 85% in the data set on Zea mays [10] and 100% in the data set on Setaria viridis [12]. Further, the outcome with Avena fatua [8], with Sorghum halepense [11], in the data set with Echinochloa crus-galli [13] and in the data set on Setaria viridis [14] was inactive.
In the case of `COC(=O)C(C)Oc1ccc(Oc2ncc3cc(Cl)ccc3n2)cc1` (racemic), the Activity with Echinochloa crus-galli [1] was 85%; in the data set on Sorghum halepense [2] it was 85%; with Triticum aestivum [3] it was 0%; in the data set with Triticum aestivum [4], “Non-toxic”; with Avena fatua [5], 0%; in the data set with Oryza sativa [6], “Non-toxic”. Moreover, the Activity entry is on record as “Non-toxic” in the data set with Zea mays [7], 0% with Oryza sativa [9], 15% in the data set with Zea mays [10] and 65% in the data set on Setaria viridis [12]. Also, the outcome in the data set on Avena fatua [8], with Sorghum halepense [11], in the data set with Echinochloa crus-galli [13] and with Setaria viridis [14] was inactive.
With `CCCCOC(=O)C(C)Oc1ccc(Oc2ccc(C(F)(F)F)cn2)cc1` (racemic), the Activity with Triticum aestivum [15] was 70%; in the data set on Sorghum halepense [16], 85%; in the data set on Echinochloa crus-galli [17], 85%; in the data set on Triticum aestivum [4], “Non-toxic”; with Oryza sativa [6], “Non-toxic”; with Zea mays [7] it was “Non-toxic”. Further, the Activity worked out at 85% with Avena fatua [18], 50% in the data set on Oryza sativa [19], 85% in the data set on Zea mays [20] and 85% in the data set on Setaria viridis [21]. The result in the data set on Avena fatua [8], with Sorghum halepense [11], in the data set with Echinochloa crus-galli [13] and in the data set with Setaria viridis [14] was inactive.
As to `COC(=O)C(C)Oc1ccc(N(C)c2ccc3cc(Cl)ccc3n2)cc1` (racemic), the Activity in the data set on Echinochloa crus-galli [1] is recorded as 100%; in the data set on Sorghum halepense [2], 100%; with Triticum aestivum [3], 85%; with Triticum aestivum [4] it was “Non-toxic”; in the data set on Avena fatua [5], 70%; in the data set with Oryza sativa [6], “Non-toxic”. In addition, the Activity entry in the data set with Zea mays [7] is on record as “Non-toxic”; with Oryza sativa [9], 30%; with Zea mays [10], 100%; with Setaria viridis [12] it was 85%. Besides, the result in the data set on Avena fatua [8], in the data set with Sorghum halepense [11], with Echinochloa crus-galli [13] and with Setaria viridis [14] was inactive.
As for `CCOC(=O)C(C)Oc1ccc(N(C)c2cc3ccc(Cl)cc3cn2)cc1` (racemic), the Activity with Echinochloa crus-galli [1] was 100%; in the data set with Sorghum halepense [2], 85%; in the data set on Triticum aestivum [3], 85%; with Triticum aestivum [4], “Non-toxic”; in the data set on Avena fatua [5], 70%; in the data set with Oryza sativa [6] it was “Non-toxic”. The Activity entry is “Non-toxic” in the data set with Zea mays [7], 0% in the data set on Oryza sativa [9], 100% in the data set with Zea mays [10] and 85% with Setaria viridis [12]. The outcome with Avena fatua [8], in the data set on Sorghum halepense [11], in the data set on Echinochloa crus-galli [13] and in the data set with Setaria viridis [14] was inactive.
In the case of `COC(=O)C(C)Oc1ccc(N(C)c2ccc(Cl)cc2Cl)cc1` (racemic), the Activity in the data set with Echinochloa crus-galli [1] is 85%; with Sorghum halepense [2], 85%; with Triticum aestivum [3] it was 70%; in the data set on Triticum aestivum [4], “Non-toxic”; in the data set with Avena fatua [5], 0%; with Oryza sativa [6] it was “Non-toxic”. The Activity result in the data set with Zea mays [7] is “Non-toxic”; with Oryza sativa [9] it was 0%; with Zea mays [10], 30%; with Setaria viridis [12], 85%. In addition, the result with Avena fatua [8], in the data set on Sorghum halepense [11], in the data set with Echinochloa crus-galli [13] and with Setaria viridis [14] was inactive.
As to `COC(=O)C(C)Oc1ccc(Oc2nnc3cc(Cl)ccc3n2)cc1` (racemic), the Activity is listed as 50% with Echinochloa crus-galli [1]; 30% in the data set with Sorghum halepense [2]; 0% in the data set with Triticum aestivum [3]; “Non-toxic” in the data set with Triticum aestivum [4]; 0% with Avena fatua [5]; “Non-toxic” with Oryza sativa [6]. The Activity entry was “Non-toxic” in the data set on Zea mays [7], 0% in the data set on Oryza sativa [9], 0% in the data set on Zea mays [10] and 50% in the data set with Setaria viridis [12]. Also, the result in the data set with Avena fatua [8], with Sorghum halepense [11], with Echinochloa crus-galli [13] and in the data set on Setaria viridis [14] was inactive.
Consider `CCOC(=O)C(C)Oc1ccc(Oc2cc3ccc(Cl)cc3cn2)cc1` (racemic), for which the Activity in the data set on Echinochloa crus-galli [1] is 100%; with Sorghum halepense [2], 100%; in the data set on Triticum aestivum [3] it was 85%; with Triticum aestivum [4] it was “Non-toxic”; in the data set on Avena fatua [5] it was 85%; in the data set on Oryza sativa [6], “Non-toxic”. The Activity entry in the data set with Zea mays [7] is “Non-toxic”; with Oryza sativa [9], 70%; with Zea mays [10], 70%; with Setaria viridis [12], 85%. Besides, the outcome with Avena fatua [8], in the data set on Sorghum halepense [11], in the data set on Echinochloa crus-galli [13] and with Setaria viridis [14] was inactive.
As for `CCOC(=O)C(C)Oc1ccc(N(C)c2cnc3cc(Cl)ccc3n2)cc1` (racemic), the Activity in the data set with Echinochloa crus-galli [1] is recorded as 85%; in the data set on Sorghum halepense [2] it was 85%; with Triticum aestivum [3], 85%; with Triticum aestivum [4] it was “Non-toxic”; in the data set on Avena fatua [5] it was 0%; with Oryza sativa [6], “Non-toxic”. Also, the Activity result with Zea mays [7] was “Non-toxic”; in the data set with Oryza sativa [9], 0%; in the data set on Zea mays [10], 50%; with Setaria viridis [12], 85%. Moreover, the result in the data set on Avena fatua [8], with Sorghum halepense [11], in the data set with Echinochloa crus-galli [13] and in the data set with Setaria viridis [14] was inactive.
